Assay results from ChEMBL document CHEMBL5260835, “Therapeutic potential of quercetin as a cardiovascular agent” (2018).

Experiments:
[1] = test system: Rattus norvegicus; assay: Hypotensive effect in rat at 100 nmol/kg,po; type: functional
[2] = organism: Rattus norvegicus; assay: Activation of rat Na(+)/K(+) ATPase assessed as increase in maximum velocity relative to control
[3] = organism: Mus musculus; assay: Effect on triglyceride level in serum of high fat diet induced mouse model assessed as reduction in triglycerides level relative to control; type: functional; set-up: scale not given: the % may be the effect or the level left
[4] = organism: Oryctolagus cuniculus; assay: Cardioprotective activity in rabbit model assessed as resistance relaxation at 30 uM; type: functional; set-up: scale not given: the % may be the effect or the level left
[5] = organism: Mus musculus; assay: Effect on oleic level in serum of high fat diet induced mouse model assessed as reduction in oleic level relative to control; type: functional; set-up: scale not given: the % may be the effect or the level left
[6] = organism: Oryctolagus cuniculus; assay: Cardioprotective activity in rabbit model assessed as resistance relaxation at 8 uM; type: functional; set-up: scale not given: the % may be the effect or the level left
[7] = organism: Mus musculus; assay: Effect on palmitic level in serum of high fat diet induced mouse model assessed as reduction in palmitic level relative to control; type: functional; set-up: scale not given: the % may be the effect or the level left
[8] = organism: Mus musculus; assay: Effect on linoleic level in serum of high fat diet induced mouse model assessed as reduction in linoleic level relative to control; type: functional; set-up: scale not given: the % may be the effect or the level left
[9] = organism: Oryctolagus cuniculus; assay: Cardioprotective activity in rabbit model assessed as conductivity relaxation at 5.6 uM; type: functional; set-up: scale not given: the % may be the effect or the level left
[10] = organism: Oryctolagus cuniculus; assay: Cardioprotective activity in rabbit model assessed as resistance relaxation at 5.6 uM; type: functional; set-up: scale not given: the % may be the effect or the level left
[11] = organism: Mus musculus; assay: Antiatherosclerotic activity in Apoe-/- mouse assessed as attenuation of coronary artery illness relative to control; type: functional
[12] = organism: Oryctolagus cuniculus; assay: Cardioprotective activity in rabbit model assessed as conductivity relaxation at 8 uM; type: functional; set-up: scale not given: the % may be the effect or the level left
[13] = test system: Mus musculus; assay: Cardioprotection in […] assessed as decrease in mean arterial pressure at 5 to 10 mg/kg, po measured after 13 weeks relative control; type: functional; set-up: scale not given: the % may be the effect or the level left; conditions: dose 5-10 mg/kg
[14] = organism: Oryctolagus cuniculus; assay: Cardioprotective activity in rabbit model assessed as conductivity relaxation at 30 uM; type: functional; set-up: scale not given: the % may be the effect or the level left

Structure (SMILES) | Activity [1] | Activity [2] | Activity [3] | Activity [4] | Activity [5] | Activity [6] | Activity [7] | Activity [8] | Activity [9] | Activity [10] | Activity [11] | Activity [12] | Activity [13] | Activity [14]
C[C@H](CS)C(=O)N1CCC[C@H]1C(=O)O [CAPTOPRIL] | 29.7 mmHg |  |  |  |  |  |  |  |  |  |  |  |  | 
O=c1c(O)c(-c2ccc(O)c(O)c2)oc2cc(O)cc(O)c12 [QUERCETIN] |  | 15% | 14% | -82% | 9% | -47% | 9% | 9% | -20% | -3.2% | 86% | -3.2% | -12% | -72%
